Series [1] has as its target JNK3 (Homo sapiens, UniProt P53779). Kind of series: JNK3 in vitro assay (c-jun phosphorylation, 33P incorporation, SPA). In kind it is biochemical. Particulars: recombinant pre-activated GST-JNK3, biotinylated GST-c-Jun, 2 μM 33γ-ATP. As to the method:
The phosphorylation of c-jun by JNK2 or JNK3 may be followed by monitoring the incorporation of ^33P into c-jun following the protocol below. The inhibitory activity of the compounds according to formula I, in respect of c-jun phosphorylation through JNK, is determined by calculating the phosphorylation activity of a JNK in the presence or absence of the test compounds according to formula I.
JNK3 and/or -2 assays are performed in 96 well MTT plates: incubation of 0.5 μg of recombinant, pre-activated GST-JNK3 or GST-JNK2 with 1 μg of recombinant, biotinylated GST-c-Jun and 2 μM ^33γ-ATP (2 nCi/μl), in the presence or absence of compounds according to formula I and in a reaction volume of 50 μl containing 50 mM Tris-HCl, pH 8.0; 10 mM MgCl2; 1 mM Dithiothreitol, and 100 μM NaVO4. The incubation is performed for 120 min. at R.T and stopped upon addition of 200 μl of a solution containing 250 μg of Streptavidine-coated SPA beads (Amersham, Inc.)*, 5 mM EDTA, 0.1% Triton X-100 and 50 μM ATP, in phosphate saline buffer. After incubation for 60 minutes at RT, beads are sedimented by centrifugation at 1500×g for 5 minutes, resuspended in 200 μl of PBS containing 5 mM EDTA, 0.1% Triton X-100 and 50 μM ATP and the radioactivity measured in a scintillation β counter, following sedimentation of the beads as described above. By replacing biotinylated GST-c Jun with biotinylated GST-1ATF2 or biotinylated myelin basic protein, this assay may also be used to measure inhibition of pre-activated p38 and ERK MAP Kinases, respectively.

A short description of series [2]: Solubility in water at pH 7.4. In kind it is physicochemical. Particulars: aqueous buffer, pH 7.4, r.t. The method, then: The compounds have been assessed in respect of their solubility in water, at a pH of 7.4 at room temeprature. In general the solubility of compounds of formula (I) is in a range of at least 50 μg/mL solvent, more preferably of at least 100 μg/mL solvent.

In brackets after ≈: the same amount, converted by molar mass. Some results are limits rather than exact numbers.

Sequence of JNK3 (P53779 whole entry): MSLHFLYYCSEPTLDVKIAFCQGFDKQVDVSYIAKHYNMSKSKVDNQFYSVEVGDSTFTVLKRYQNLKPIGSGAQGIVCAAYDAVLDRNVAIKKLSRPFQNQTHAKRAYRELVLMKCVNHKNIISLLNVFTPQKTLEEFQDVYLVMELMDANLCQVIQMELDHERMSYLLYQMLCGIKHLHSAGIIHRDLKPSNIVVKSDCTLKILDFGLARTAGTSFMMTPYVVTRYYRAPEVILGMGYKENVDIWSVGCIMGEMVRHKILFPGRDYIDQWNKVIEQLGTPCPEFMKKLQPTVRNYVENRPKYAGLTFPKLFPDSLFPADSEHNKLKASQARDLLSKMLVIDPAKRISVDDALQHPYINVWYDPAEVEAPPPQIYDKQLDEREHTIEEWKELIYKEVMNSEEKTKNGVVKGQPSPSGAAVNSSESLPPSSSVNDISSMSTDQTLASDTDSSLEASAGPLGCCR

For `COc1cccc(C(=O)NCc2cc(C(=O)O)c(S(=O)(=O)N3CCC(Nc4cccc(S(=O)(=O)C(F)(F)F)c4)CC3)s2)c1` [Example 1, 5-{[(3-methoxybenzoyl)amino]methyl}-2-[(4-{3-[(trifluoromethyl) -sulfonyl]anilino}piperidin-1-yl)sulfonyl]thiophene-3-carboxylic acid], in series [1], the IC50 was below 100 nM. In series [2], this compound displayed a solubility of 180 µg/mL (≈ 272 µM). Take `COc1cccc(C(=O)NCc2cc(C(=O)O)c(S(=O)(=O)N3CCC(NCc4ccc(C(F)(F)F)cc4)CC3)s2)c1` [Example 4, 5-{[(3-methoxybenzoyl)amino]methyl}-2-[(4-{[4-(trifluoromethyl)benzyl]amino}-1-piperidinyl)sulfonyl]-3-thiophenecarboxylic acid]: the IC50 in series [1] was below 100 nM. For the compound “N-({4-(hydrazinocarbonyl)-5-[(4-{3-[(trifluoro-methyl)sulfonyl]anilino}piperidin-1-yl)sulfonyl]-thien-2-yl}methyl)-3-methoxybenzamide [Example 6]”, the IC50 in series [1] was below 100 nM.

(Values after US20040077632A1, “Pharmaceutically active hydrophilic sulfonamide derivatives as inhibitors of protein junkinases” (priority 2000, published 2004).)
